Results: paper PMC10041525, “New Dual Inhibitors of Bacterial Topoisomerases with Broad-Spectrum Antibacterial Activity and In Vivo Efficacy against Vancomycin-Intermediate Staphylococcus aureus” (Journal of Medicinal Chemistry, 2023)
Values after ≈ are worked out from the molar mass of the structure shown. Where two headings read alike, the source gives them in different places.

How the values were obtained:
[1] = system: N. gonorrhoeae ATCC 49226; experiment: IHMA QC MIC; type: cell-based; details: Neisseria gonorrhoeae, ATCC49226; QC strain N. gonorrhoeae ATCC 49226, test date 2021-11-18; read-out: MIC
Source text: Supplement jm2c01905_si_004.xlsx, sheet "QC" | column: MIC [µg/mL]

[2] = system: Neisseria gonorrhoeae (n = 12); experiment: MIC broth microdilution at IHMA Europe; type: cell-based; details: for MIC: Neisseria gonorrhoeae, read-out: MIC

In the case of `O=C(O)c1cn(C2CC2)c2cc(N3CCNCC3)c(F)cc2c1=O` [ciprofloxacin], the MIC [1] is reported as 0.004 mg/L (≈ 0.0121 µM), the “Cumulative % at MIC” value ([2]; MIC 0.004 µg/mL) is reported as 41.7% and the “No. of isolates at MIC” value ([2]; MIC 0.004 µg/mL) is reported as 5. The “Cumulative % at MIC” value ([2]; MIC >[…] µg/mL) was 100.0%, the “No. of isolates at MIC” value ([2]; MIC >[…] µg/mL) was 2 and the MIC ([2]; isolate IHMA 1123853) was greater than 8 mg/L. The MIC ([2]; isolate IHMA 1130935) was 4 mg/L (≈ 12.1 µM), the MIC ([2]; isolate IHMA 1130989) was 4 mg/L (≈ 12.1 µM) and the MIC ([2]; isolate IHMA 1130991) was 8 mg/L (≈ 24.1 µM). It also gave an MIC ([2]; isolate IHMA 1137292) greater than 8 mg/L, an MIC ([2]; isolate IHMA 1145734) of 8 mg/L (≈ 24.1 µM) and an MIC ([2]; isolate IHMA 1145735) of 4 mg/L (≈ 12.1 µM). For the same compound, the MIC ([2]; isolate IHMA 1165897) was 0.004 mg/L (≈ 0.0121 µM), the MIC ([2]; isolate IHMA 1194748) was 0.004 mg/L (≈ 0.0121 µM) and the MIC ([2]; isolate IHMA 1194750) was 0.004 mg/L (≈ 0.0121 µM). For the same compound, the MIC ([2]; isolate IHMA 1546199) was 0.004 mg/L (≈ 0.0121 µM) and the MIC ([2]; isolate IHMA 1546215) was 0.004 mg/L (≈ 0.0121 µM).
